Assay: RP, Thermo Scientific Acclaim RSLC 120 C18, 100 × 2.1 mm, 2.2 µm, 30 °C, 0.2 mL/min, estimated dead time 1.1 min; A: 90% water + 10% methanol + 0.01% formic acid + 5 mM ammonium formate, pH 3.61; B: methanol + 0.01% formic acid + 5 mM ammonium formate, pH 3.61; gradient (min/%B) 0/1 1/1 2/39 13/99.9 15/99.9 15.1/1 20.1/1
Settings: stereoisomer not certain

Structure (SMILES) | LC retention time
Cc1cc(C)nc(Nc2ccccc2)n1 [Pyrimethanil] | 9.44 min
CC(COc1ccc(Oc2ccccc2)cc1)Oc1ccccn1 (centres undefined) [Pyriproxyfen] | 12.6 min
CCCC(C(=O)c1ccc(C)cc1)N1CCCC1 (centres undefined) [Pyrovalerone] | 6.03 min
OCCOCCN1CCN(C2=Nc3ccc(O)cc3Sc3ccccc32)CC1 [Quetiapine-Hydroxy] | 4.99 min
OCCOCCN1CCN(C2=Nc3ccccc3Sc3ccccc32)CC1 [Quetiapine] | 7.26 min
CCOP(=S)(OCC)Oc1cnc2ccccc2n1 [Quinalphos] | 10.8 min
O=C(O)c1c(Cl)ccc2cc(Cl)cnc12 [Quinclorac] | 4.9 min
Cc1cnc2c(C(=O)O)c(Cl)ccc2c1 [Quinmerac] | 4.75 min
Fc1ccc(Oc2ccnc3cc(Cl)cc(Cl)c23)cc1 [Quinoxyphen] | 12.8 min
CC(Oc1ccc(Oc2cnc3cc(Cl)ccc3n2)cc1)C(=O)O (centres undefined) [Quizalofop] | 9.62 min
COc1ccc(C(=O)c2cn(CCCCC(=O)O)c3ccccc23)cc1 [RCS-4-M-5-COOH-Pentyl] | 8.81 min
COc1ccc(C(=O)c2cn(CCCCCO)c3ccccc23)cc1 [RCS-4-M-5-OH-Pentyl] | 9.18 min
CCCCCn1cc(C(=O)c2ccccc2OC)c2ccccc21 [RCS-4-ortho] | 11.2 min
CCCCCn1cc(C(=O)c2ccc(OC)cc2)c2ccccc21 [RCS-4] | 11.8 min
COc1ccccc1CC(=O)c1cn(CCC2CCCCC2)c2ccccc12 [RCS-8] | 13 min
CCOc1ccccc1OC(c1ccccc1)C1CNCCO1 (centres undefined) [Reboxetine] | 7.28 min
COC(=O)C1C2CC3c4[nH]c5cc(OC)ccc5c4CCN3CC2CC(OC(=O)c2cc(OC)c(OC)c(OC)c2)C1OC (centres undefined) [Reserpine] | 8.47 min
Oc1ccc(C=Cc2cc(O)cc(O)c2)cc1 [Resveratrol] | 5.93 min
CC=C1CC(C)C(O)(CO)C(=O)OCC2=CC[N+]3([O-])CCC(OC1=O)C23 (centres undefined) [Retrorsine-N-oxide] | 4.33 min
CC=C1CC(C)C(O)(CO)C(=O)OCC2=CCN3CCC(OC1=O)C23 (centres undefined) [Retrorsine] | 4.01 min
NC(=O)c1ncn(C2OC(CO)C(O)C2O)n1 (centres undefined) [Ribavirin] | 1.36 min
C1COC(NC(C2CC2)C2CC2)=N1 [Rilmenidine] | 4.4 min
CCS(=O)(=O)c1cccnc1S(=O)(=O)NC(=O)Nc1nc(OC)cc(OC)n1 [Rimsulfuron] | 7.09 min
O=C(O)C(c1ccccc1)C1CCCCN1 (centres undefined) [Ritalinic acid] | 4.61 min

Structure (SMILES) | LC retention time
O=C(NCC1CN(c2ccc(N3CCOCC3=O)cc2)C(=O)O1)c1ccc(Cl)s1 (centres undefined) [Rivaroxaban] | 7.03 min
NC(=NN=Cc1ccc(Cl)cc1)NN=Cc1ccc(Cl)cc1 [Robenidine] | 10.4 min
C=C(C)C1Cc2c(ccc3c2OC2COc4cc(OC)c(OC)cc4C2C3=O)O1 (centres undefined) [Rotenone] | 10.5 min
CCC1OC(=O)C(C)C(OC2CC(C)(OC)C(O)C(C)O2)C(C)C(OC2OC(C)CC(N(C)C)C2O)C(C)(O)CC(C)C(=NOCOCCOC)C(C)C(O)C1(C)O (centres undefined) [Roxithromycin] | 9.23 min
O=C(Oc1cccc2ccccc12)c1nn(CCCCCF)c2ccccc12 [SDB-005-5F] | 12.1 min
CCCCCn1nc(C(=O)Oc2cccc3ccccc23)c2ccccc21 [SDB-005] | 13.1 min
CCCCCn1cc(C(=O)Nc2ccccc2)c2ccccc21 [SDB-006 N-phenyl] | 11.3 min
O=C(NCc1ccccc1)c1cn(CCCCCF)c2ccccc12 [SDB-006-5F] | 10 min
CCCCCn1cc(C(=O)NCc2ccccc2)c2ccccc21 [SDB-006] | 11.2 min
O=C(NC12CC3CC(CC(C3)C1)C2)c1cn(CCCCCF)c2ccccc12 [STS-135] | 12.2 min
NC(=O)c1ccccc1O [Salicylamide] | 4.76 min
O=C(Nc1ccc(C(=O)O)c(O)c1)c1ccccc1 [Salicylic acid-4-Benzamido] | 5.47 min
OCc1cc(C(O)CNCCCCCCOCCCCc2ccccc2)ccc1O (centres undefined) [Salmeterol] | 8.83 min
CN(C)P(=O)(OP(=O)(N(C)C)N(C)C)N(C)C [Schradan] | 5.36 min
C[N+]1(C)C2CC(OC(=O)C(CO)c3ccccc3)CC1C1OC12 (centres undefined) [Scopolamine-Methyl] | 3.88 min
CN1C2CC(OC(=O)C(CO)c3ccccc3)CC1C1OC12 (centres undefined) [Scopolamine] | 3.83 min
NNC(N)=O [Semicarbazide (SEM)] | 1.33 min
CC=C1CC(C)C(C)(O)C(=O)OCC2=CC[N+]3([O-])CCC(OC1=O)C23 (centres undefined) [Senecionine-N-oxide] | 5.07 min
CC=C1CC(C)C(C)(O)C(=O)OCC2=CCN3CCC(OC1=O)C23 (centres undefined) [Senecionine] | 4.62 min
C=C1CC(=CC)C(=O)OC2CC[N+]3([O-])CC=C(COC(=O)C1(C)O)C23 (centres undefined) [Seneciphylline-N-oxide] | 4.5 min
C=C1CC(=CC)C(=O)OC2CCN3CC=C(COC(=O)C1(C)O)C23 (centres undefined) [Seneciphylline] | 4.17 min
CC=C1CC(C)C(C)(O)C(=O)OCC2=CCN(C)CCC(OC1=O)C2=O (centres undefined) [Senkirkine] | 5.16 min
O=C1NCCN1CCN1CCC(c2cn(-c3ccc(F)cc3)c3ccc(Cl)cc23)CC1 [Sertindole] | 9.26 min

Further lines, results first:

LC retention time | Structure (SMILES)
10.1 min | CON=C(Cc1cccnc1)c1ccc(Cl)cc1Cl [Pyrifenox]
5.92 min | CCc1nc(N)nc(N)c1-c1ccc(Cl)cc1 [Pyrimethamine]
12.5 min | CCOCCc1ccc(OCCNc2ncnc(CC)c2Cl)c(C)c1C [Pyrimidifen]
4.49 min | Cc1cc(=O)[nH]c(C(C)C)n1 [Pyrimidinol]
5.54 min | Cc1ncc(CSSCc2cnc(C)c(O)c2CO)c(CO)c1O [Pyritinol]
5.24 min | CCCN1CC(NS(=O)(=O)N(CC)CC)CC2Cc3c(O)cccc3CC21 (centres undefined) [Quinagolide]
9.03 min | CCOC(=O)C(CCc1ccccc1)NC(C)C(=O)N1Cc2ccccc2CC1C(=O)O (centres undefined) [Quinapril]
12.1 min | CCOC(=O)C(C)Oc1ccc(Oc2cnc3cc(Cl)ccc3n2)cc1 (centres undefined) [Quizalofop-ethyl]
8.27 min | Cc1cc(C)n(-c2nc3ccccc3[nH]2)n1 [Rabenzazole]
7.52 min | COCCCOc1ccnc(CS(=O)c2nc3ccccc3[nH]2)c1C (centres undefined) [Rabeprazole]
4.39 min | CC(CCc1ccc(O)cc1)NCC(O)c1ccc(O)cc1 (centres undefined) [Ractopamine]
5.72 min | Cc1c(NC(C)C)c(=O)n(-c2ccccc2)n1C [Ramifenazone]
8.56 min | CCOC(=O)C(CCc1ccccc1)NC(C)C(=O)N1C(C(=O)O)CC2CCCC21 (centres undefined) [Ramipril]
3.43 min | CNC(=C[N+](=O)[O-])NCCSCc1ccc(C[N+](C)(C)[O-])o1 [Ranitidine-N-oxide]
3.14 min | CNC(=C[N+](=O)[O-])NCCSCc1ccc(CN(C)C)o1 [Ranitidine]
6.66 min | COC(=O)C1=COC(C)C2CN3CCc4c([nH]c5ccccc45)C3CC12 (centres undefined) [Raubasine]
5.06 min | CCN1CCCC1CNC(=O)c1c(OC)ccc(Br)c1OC (centres undefined) [Remoxipride]
11.9 min | CCOc1cc(CC(=O)NC(CC(C)C)c2ccccc2N2CCCCC2)ccc1C(=O)O (centres undefined) [Repaglinide]
3.56 min | Cn1c(=O)c2c(ncn2CCCNCC(O)c2cc(O)cc(O)c2)n(C)c1=O (centres undefined) [Reproterol]

LC retention time | Structure (SMILES)
9.12 min | Nc1nc2ccc(OC(F)(F)F)cc2s1 [Riluzole]
12.8 min | Cc1c(C(=O)NN2CCCCC2)nn(-c2ccc(Cl)cc2Cl)c1-c1ccc(Cl)cc1 [Rimonabant]
5.33 min | Cc1nc2n(c(=O)c1CCN1CCC(c3noc4cc(F)ccc34)CC1)CCCC2O (centres undefined) [Risperidone-9-OH (Paliperidone)]
5.88 min | Cc1nc2n(c(=O)c1CCN1CCC(c3noc4cc(F)ccc34)CC1)CCCC2 [Risperidone]
3.79 min | CC(NCCc1ccc(O)cc1)C(O)c1ccc(O)cc1 (centres undefined) [Ritodrine]
11.1 min | CC(C)c1nc(CN(C)C(=O)NC(C(=O)NC(Cc2ccccc2)CC(O)C(Cc2ccccc2)NC(=O)OCc2cncs2)C(C)C)cs1 (centres undefined) [Ritonavir]
3.49 min | CN(C)CCc1c[nH]c2ccc(Cn3cncn3)cc12 [Rizatriptan]
3.55 min | Cn1c([N+](=O)[O-])cnc1COC(N)=O [Ronidazole]
3.98 min | CCCN(CCC)CCc1cccc2c1CC(=O)N2 [Ropinirole]
5.39 min | CCCN1CCCCC1C(=O)Nc1c(C)cccc1C (centres undefined) [Ropivacaine]
6.98 min | CN(CCOc1ccc(CC2SC(=O)NC2=O)cc1)c1ccccn1 (centres undefined) [Rosiglitazone]
8.2 min | CC(C)c1nc(N(C)S(C)(=O)=O)nc(-c2ccc(F)cc2)c1C=CC(O)CC(O)CC(=O)O (centres undefined) [Rosuvastatin]
9.68 min | COC(=O)Nc1ccc(Cl)c(Cl)c1 [SWEP.MCC]
7.14 min | CC(C)NC(=O)c1ccccc1O [Salicylamide-N-Isopropyl]
4.83 min | O=C(O)c1cn(-c2ccc(F)cc2)c2cc(N3CCNCC3)c(F)cc2c1=O [Sarafloxacin]
9.09 min | CCNc1nc(Cl)nc(NC(C)CC)n1 (centres undefined) [Sebuthylazine]
8.79 min | CCNc1nc(NC(C)CC)nc(OC)n1 (centres undefined) [Secbumeton]
9.02 min | NC1CCC(c2ccc(Cl)c(Cl)c2)c2ccccc21 (centres undefined) [Sertraline-Desmethyl]

Source: the RepoRT retention time repository (doi:10.1021/acs.analchem.2c02893)
